According to patent publication US11938143B2, “Compositions comprising 2′-deoxycytidine analogs and use thereof for the treatment of sickle cell disease, thalassemia, and cancers” (AkiraBio, Inc., priority 2021, dated 2024):

Assays:
HbF = test: F-cells and MFI by flow cytometry in sickle erythroid progenitors; format: cell-based, human; details: 48 hours
Procedure: FIGS. 8A-8D show representative data pertaining to the induction of AB1 HbF and inhibition of DNMT1 levels. Sickle erythroid progenitors were treated with the various agents shown for 48 hours. […] Shown in the graph is the mean±SEM for n=6 replicates. […] In FIGS. 8C-8D, “UT” indicates untreated cells; “HU” indicates hydroxyurea; “DEC” indicates decitabine; and “AB1” indicates disclosed compound AB1; the concentrations are indicated above the graph below the text indicating treatment compound.
Additional studies were carried out in primary sickle erythroid progenitors were next conducted. Using a previously established two-phase culture system, (See NRF2 mediates γ-globin gene regulation and fetal hemoglobin induction in human erythroid progenitors Xingguo Zhu et al., Experimental Hematology 2019; 70:85-96, incorporated by reference herein) AB1 was evaluated in progenitors cultured from peripheral blood mononuclear cells (PBMC) isolated from sickle cell subjects, at concentrations of 3, 6, and 10 nM. […] Cell viability was assessed with Trypan blue, and markers of erythroid differentiation were assessed by flow cytometry using antibodies for CD71 and CD235a, to evaluate changes in differentiation. […]
We assessed effects of AB1 at the transcription levels by RT-qPCR analysis. […]

[1] = test system: sickle erythroid progenitors; test: In vitro sickling of erythroid progenitors under overnight hypoxia (2% oxygen); format: cell-based, human; details: 48 hours treatment then overnight at 2% oxygen; AB1 3, 6, 10 nM; decitabine 200 nM; HU 75 μM
Procedure: FIGS. 9A-9B show representative data pertaining to various treatments and reduction of the level of sickle erythroid progenitors. After sickle progenitors were treated with the various drugs for 48 hours as indicated, and then incubated overnight in hypoxia conditions. […] In FIGS. 9A-9B, “UT” indicates untreated cells; “HU” indicates hydroxyurea; “DEC” indicates decitabine; and “AB1” indicates disclosed compound AB1; the concentrations are indicated, and concentration used is adjacent to the text indicating treatment compound.
We assessed effects of AB1 at the transcription levels by RT-qPCR analysis. […] Complementary studies at the protein levels were completed by flow cytometry and Western blot. […] To further support the notion that AB1 induces HbF expression, Western blot analysis was performed. […] It was observed that there was a dose-dependent 80% decrease in DNMT1 in sickle erythroid progenitors at the highest AB1 10 nM concentration (FIG. 8 D). […] After treatment for 48 hours, with the various drugs, the cells were incubated overnight at 2% oxygen, then fixed with formalin and the number of sickle versus non-sickle cells counted by phase contrast microscopy, a method previously published by the Pace (PI/PD) group (see Zhu, X., Li, B. & Pace, B. S. Haematologica 102, e285-e288, doi:10.3324/haematol.2016.160788 (2017)). […]

[2] = test system: sickle erythroid progenitors; test: Erythroid differentiation markers CD71 and CD235a by flow cytometry in sickle erythroid progenitors; format: cell-based, human; details: 48 hours
Procedure: (§1) FIGS. 6A-6B show representative data pertaining to primary sickle erythroid progenitors generated from peripheral blood mononuclear cells isolated from sickle cell patients using a two-phase liquid culture system. Cells treated for 48 hours were analyzed. […] Shown in the graph is the mean±SEM for n=6.
Additional studies were carried out in primary sickle erythroid progenitors were next conducted. Using a previously established two-phase culture system, (See NRF2 mediates γ-globin gene regulation and fetal hemoglobin induction in human erythroid progenitors Xingguo Zhu et al., Experimental Hematology 2019; 70:85-96, incorporated by reference herein) AB1 was evaluated in progenitors cultured from peripheral blood mononuclear cells (PBMC) isolated from sickle cell subjects, at concentrations of 3, 6, and 10 nM. PBMCs were isolated by Ficoll® Paque separation and cultured in IMDM supplemented with erythropoietin (2 IU), stem cell factor (10 ng/mL) and Interleukin 3 (10 ng/mL). On day seven, drug controls HU 75 μM, Dec 200 nM and AB1 (3, 6, and 10 nM) were added for 48 hours. Cell viability was assessed with Trypan blue, and markers of erythroid differentiation were assessed by flow cytometry using antibodies for CD71 and CD235a, to evaluate changes in differentiation. Proportions of F-cells and MFI were assayed by FACScan using staining with fluorescein isothiocyanate (FITC) anti-human HbF antibody (Bethyl). In our experience, primary erythroid progenitors are more sensitive to drug toxicity, so a lower dose range of AB1 was used. […] As a marker of early erythroid differentiation, CD71^+ progenitors were not affected by Dec or AB1 at any dose tested. In notable contrast, there was a 7-fold increase in CD71^+ cells mediated by HU (FIG. 6B).

[3] = Cell viability of primary sickle erythroid progenitors by Trypan blue; format: cell-based; details: human, HU 75 μM, read-out: drop in cell viability
Procedure: as §1
Additional studies were carried out in primary sickle erythroid progenitors were next conducted. Using a previously established two-phase culture system, (See NRF2 mediates γ-globin gene regulation and fetal hemoglobin induction in human erythroid progenitors Xingguo Zhu et al., Experimental Hematology 2019; 70:85-96, incorporated by reference herein) AB1 was evaluated in progenitors cultured from peripheral blood mononuclear cells (PBMC) isolated from sickle cell subjects, at concentrations of 3, 6, and 10 nM. PBMCs were isolated by Ficoll® Paque separation and cultured in IMDM supplemented with erythropoietin (2 IU), stem cell factor (10 ng/mL) and Interleukin 3 (10 ng/mL). On day seven, drug controls HU 75 μM, Dec 200 nM and AB1 (3, 6, and 10 nM) were added for 48 hours. Cell viability was assessed with Trypan blue, and markers of erythroid differentiation were assessed by flow cytometry using antibodies for CD71 and CD235a, to evaluate changes in differentiation. […]

Structure (SMILES)	F-cell levels (HbF; average of SCD patients, increase from 16%, all AB1 concentrations tested, Dec 200 nM)	decrease in sickle cells [1]	CD71+ progenitors (marker of early erythroid differentiation) ([2]; Dec 200 nM, AB1 at any dose tested (3, 6, 10 nM))	level of CD235a+ cells (marker of terminal differentiation) ([2]; HU 75 μM, Dec 200 nM, AB1 3, 6, 10 nM)	F-cell induction (HbF; HU 75 μM, all patient data combined)	increase in CD71+ cells ([2]; HU 75 μM)	cytotoxicity at 48 h, 75 μM [3]
Nc1ncn([C@H]2C[C@H](O)[C@@H](CO)O2)c(=O)n1 [Dec, 4-amino-1-(2-deoxy-b-D-erythro-pentofuranosyl)-1,3,5-triazin-2(1H)-one]	22%	80%	not affected	increased by all drugs except Dec			
NC(=O)NO [HU, hydroxyurea]		50%			not observed	7 fold	40%
